Experimental data: patent US20260138978A1, “POSITIVE ALLOSTERIC MODULATORS OF THE MUSCARINIC ACETYLCHOLINE RECEPTOR M1” (Vanderbilt University, priority 2022, published 2026); call rule not given here
pEC50: −log10 of the molar value.

Experiments:
human mAChRM1 [1] = target: T1, human mAChRM1 (Homo sapiens, UniProt P11229); experiment: mAChR M1 cell-based functional assay (calcium mobilization), positive allosteric modulator activity: increase in the EC20 acetylcholine response; settings: for Emax: PAM mode; for pEC50: increase in the EC20 acetylcholine response, read-out: PAM Activity Human M1 EC50
T1 construct: host or cells: CHO-K1
T1 sequence (P11229 1-460): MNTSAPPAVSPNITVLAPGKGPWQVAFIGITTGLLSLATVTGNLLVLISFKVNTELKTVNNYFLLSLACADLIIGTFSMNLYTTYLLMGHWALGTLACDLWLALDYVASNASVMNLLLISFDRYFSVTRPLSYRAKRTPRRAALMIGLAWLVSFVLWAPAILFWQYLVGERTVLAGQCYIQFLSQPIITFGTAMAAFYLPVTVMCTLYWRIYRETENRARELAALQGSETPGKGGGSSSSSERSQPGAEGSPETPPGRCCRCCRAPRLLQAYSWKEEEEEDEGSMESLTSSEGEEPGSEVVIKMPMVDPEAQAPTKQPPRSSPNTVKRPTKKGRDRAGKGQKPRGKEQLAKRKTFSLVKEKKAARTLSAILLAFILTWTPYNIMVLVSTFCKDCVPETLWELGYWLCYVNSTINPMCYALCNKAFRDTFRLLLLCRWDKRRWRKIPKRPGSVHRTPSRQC
In short: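 Potentiation is scored as the rise in an EC20 acetylcholine-evoked calcium signal across 11-point (1:3) compound series, fitted with a four-parameter logistic equation to give EC50 and Emax. Read-out is Fluo-4 fluorescence ratio in hM1-transfected CHO-K1 cells, measured kinetically on FDSS.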

human mAChRM1 [2] = target: T1, human mAChRM1; experiment: mAChR M1 cell-based functional assay (calcium mobilization), agonist activity upon compound addition, Emax relative to acetylcholine maximum; settings: for Agonist Activity Human M1 EC50 / pEC50: calcium mobilization upon compound addition; for Emax: relative to the maximum for acetylcholine
In short: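 Emax is given as a percentage of the maximal acetylcholine response, from four-parameter curves of compound-evoked calcium mobilization. Human M1-transfected CHO-K1 cells carried Fluo-4 dye, and compound (11 concentrations, 1:3 steps) was applied at 4 s of a 300 s kinetic fluorescence recording.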

Structure (SMILES) | Emax (human mAChRM1 [1]) [%] | pEC50 (human mAChRM1 [1]) | Agonist Activity Human M1 EC50 (human mAChRM1 [2]) | pEC50 (human mAChRM1 [2]) | Emax (human mAChRM1 [2]) [%]
Cn1cc2c(-c3cc(F)c(CN4Cc5ncccc5C4=O)c(F)c3)ccc(C(C)(O)C(F)F)c2n1 (stereo not drawn) [Compound 100, 6-(4-(7-(1,1-difluoro-2-hydroxypropan-2-yl)-2-methyl-2H-indazol-4-yl)-2,6-difluorobenzyl)-6,7-dihydro-5H-pyrrolo[3,4-b]pyridin-5-one] | 88 | 6.68 | inactive |  | 
Cn1cc2c(-c3cc(F)c(CN4Cc5ncccc5C4=O)c(F)c3)ccc(C3(O)CCC(C#N)CC3)c2n1 (stereo not drawn) [Compound 101, 4-(4-(3,5-difluoro-4-((5-oxo-5,7-dihydro-6H-pyrrolo[3,4-b]pyridin-6-yl)methyl)phenyl)-2-methyl-2H-indazol-7-yl)-4-hydroxycyclohexane-1-carbonitrile] | 86 | 6.65 | inactive |  | 
CC[C@@](C)(O)c1ccc(-c2cc(F)c(CN3Cc4ncccc4C3=O)c(F)c2)c2cn(C)nc12 [Compound 102, (R)-6-(2,6-difluoro-4-(7-(2-hydroxybutan-2-yl)-2-methyl-2H-indazol-4-yl)benzyl)-6,7-dihydro-5H-pyrrolo[3,4-b]pyridin-5-one] | 85 | 6.44 | inactive |  | 
CC[C@](C)(O)c1ccc(-c2cc(F)c(CN3Cc4ncccc4C3=O)c(F)c2)c2cn(C)nc12 [Compound 103, (S)-6-(2,6-difluoro-4-(7-(2-hydroxybutan-2-yl)-2-methyl-2H-indazol-4-yl)benzyl)-6,7-dihydro-5H-pyrrolo[3,4-b]pyridin-5-one] | 87 | 6.60 |  | 5.37 | 11
CC(C)n1cc2c(-c3cc(F)c(CN4Cc5ncccc5C4=O)c(F)c3)ccc(C(C)(C)O)c2n1 [Compound 104, 6-(2,6-difluoro-4-(7-(2-hydroxypropan-2-yl)-2-isopropyl-2H-indazol-4-yl)benzyl)-6,7-dihydro-5H-pyrrolo[3,4-b]pyridin-5-one] | 86 | 6.55 | inactive |  | 
Cn1cc2c(-c3cc(F)c(CN4Cc5ncccc5C4=O)c(F)c3)ccc(C3(O)CC(F)(F)C3)c2n1 [Compound 105, 6-(4-(7-(3,3-difluoro-1-hydroxycyclobutyl)-2-methyl-2H-indazol-4-yl)-2,6-difluorobenzyl)-6,7-dihydro-5H-pyrrolo[3,4-b]pyridin-5-one] | 72 | 6.11 |  | < 5.00 | 15
Cn1cc2c(-c3cc(F)c(CN4Cc5c(F)cccc5C4=O)c(F)c3)ccc(C(C)(C)O)c2n1 [Compound 106, 2-(2,6-difluoro-4-(7-(2-hydroxypropan-2-yl)-2-methyl-2H-indazol-4-yl)benzyl)-4-fluoroisoindolin-1-one] | 59 | 5.33 | inactive |  | 
CC(C)(O)c1cc2c(-c3cc(F)c(CN4Cc5ncccc5C4=O)c(F)c3)cccn2n1 [Compound 107, 6-(2,6-difluoro-4-(2-(2-hydroxypropan-2-yl)pyrazolo[1,5-a]pyridin-4-yl)benzyl)-6,7-dihydro-5H-pyrrolo[3,4-b]pyridin-5-one] | 77 | 5.55 |  | ≤ 5.00 | 12
CC(C)(O)c1cc2cc(-c3cc(F)c(CN4Cc5ncccc5C4=O)c(F)c3)ccn2n1 [Compound 108, 6-(2,6-difluoro-4-(2-(2-hydroxypropan-2-yl)pyrazolo[1,5-a]pyridin-5-yl)benzyl)-6,7-dihydro-5H-pyrrolo[3,4-b]pyridin-5-one] | 70 | 5.75 | inactive |  | 
Cn1cc2c(-c3cnc(CN4Cc5ncccc5C4=O)cn3)ccc(C(C)(C)O)c2n1 [Compound 109, 6-((5-(7-(2-hydroxypropan-2-yl)-2-methyl-2H-indazol-4-yl)pyrazin-2-yl)methyl)-6,7-dihydro-5H-pyrrolo[3,4-b]pyridin-5-one] | 70 | ≤ 5.00 | inactive |  | 
Cn1cc2c(-c3cnc(CN4Cc5ncccc5C4=O)nc3)ccc(C(C)(C)O)c2n1 [Compound 110, 6-[[5-[7-(1-Hydroxy-1-methyl-ethyl)-2-methyl-indazol-4-yl]pyrimidin-2-yl]methyl]-7H-pyrrolo[3,4-b]pyridin-5-one] | 43 | ≤ 5.00 | inactive |  | 
Cn1cc2c(-c3ncc(CN4Cc5ncccc5C4=O)cn3)ccc(C(C)(C)O)c2n1 [Compound 111, 6-((2-(7-(2-hydroxypropan-2-yl)-2-methyl-2H-indazol-4-yl)pyrimidin-5-yl)methyl)-6,7-dihydro-5H-pyrrolo[3,4-b]pyridin-5-one] | 47 | ≤ 5.00 | inactive |  | 
Cn1cc2c(-c3ccc(CN4Cc5ncccc5C4=O)nn3)ccc(C(C)(C)O)c2n1 [Compound 112, 6-((6-(7-(2-hydroxypropan-2-yl)-2-methyl-2H-indazol-4-yl)pyridazin-3-yl)methyl)-6,7-dihydro-5H-pyrrolo[3,4-b]pyridin-5-one] | 27 | ≤ 5.00 | inactive |  | 
Cn1cc2c(-c3cc(F)c(CN4Cc5ncccc5C4=O)c(F)c3)ccc(C3(O)CN(C(=O)OC(C)(C)C)C3)c2n1 [Compound 113, tert-butyl 3-(4-(3,5-difluoro-4-((5-oxo-5,7-dihydro-6H-pyrrolo[3,4-b]pyridin-6-yl)methyl)phenyl)-2-methyl-2H-indazol-7-yl)-3-hydroxyazetidine-1-carboxylate] | 76 | 6.07 |  | ≤ 5.00 | 13
Cn1cc2c(-c3cc(F)c(CN4Cc5ncccc5C4=O)c(F)c3)ccc(C3(O)CNC3)c2n1 [Compound 114, 6-(2,6-Difluoro-4-(7-(3-hydroxyazetidin-3-yl)-2-methyl-2H-indazol-4-yl)benzyl)-6,7-dihydro-5H-pyrrolo[3,4-b]pyridin-5-one] | 56 | ≤ 5.00 | inactive |  | 
Cc1nc2c(-c3cc(F)c(CN4Cc5ncccc5C4=O)c(F)c3)ccc(C(C)(C)O)n2n1 [Compound 115, 6-(2,6-difluoro-4-(5-(2-hydroxypropan-2-yl)-2-methyl-[1,2,4]triazolo[1,5-a]pyridin-8-yl)benzyl)-6,7-dihydro-5H-pyrrolo[3,4-b]pyridin-5-one] | 89 | 6.27 |  | 5.10 | 29
COc1cc(-c2ccc(C(C)(C)O)c3nn(C)cc23)cc(F)c1CN1Cc2cccnc2C1=O [Compound 116, 6-(2-fluoro-4-(7-(2-hydroxypropan-2-yl)-2-methyl-2H-indazol-4-yl)-6-methoxybenzyl)-5,6-dihydro-7H-pyrrolo[3,4-b]pyridin-7-one] | 88 | 6.63 |  | ≤ 5.00 | 17
CC(C)(O)c1ccc(-c2cc(F)c(CN3Cc4cccnc4C3=O)c(F)c2)cc1 [Compound 117, 6-((3,5-difluoro-4′-(2-hydroxypropan-2-yl)-[1,1′-biphenyl]-4-yl)methyl)-5,6-dihydro-7H-pyrrolo[3,4-b]pyridin-7-one] | 68 | 5.84 | inactive |  | 
